Measurements: EP4729529A1, “PREPARATION OF PEPTIDE INHIBITOR OF INTERLEUKIN-23 RECEPTOR AND USE THEREOF” (Xizang Haisco Pharmaceutical Co., Ltd., priority 2023, dated 2024)
Starred links: 1 amine or outer side, 2 acyl side, 3 side chain; linkers in the order of their positions; H or OH if unused. Positions of bridges follow the written chain, without caps; N, C: chain ends. Non-standard residues stand in square brackets, D forms with d. Residues, ends and D or L forms follow the SMILES beside them. Groups on a side chain read outwards from the residue. *: point of attachment. Phe(4-OC2H4NH2,2,3-(CH2)3) = NCCOc1ccc(C[C@H](N)C(=O)O)c2c1CCC2; Trp(7-cPr) = N[C@@H](Cc1c[nH]c2c(C3CC3)cccc12)C(=O)O; X4 = COCCOCCOCCOCCOCCOCCOCCOCCOCCOCCOCCOCCOCC(=O)*; Trp(7-Me) = Cc1cccc2c(C[C@H](N)C(=O)O)c[nH]c12; C18 diacid = O=C(O)CCCCCCCCCCCCCCCCC(=O)*; γGlu = O=C(O)[C@H](CCC(=O)[*:2])N[*:1]; 2Nal = N[C@@H](Cc1ccc2ccccc2c1)C(=O)O; TBMB = c1c(C[*:1])cc(C[*:3])cc1C[*:2]; X1 = O=C(C(N[*:1])C1(S[*:3])CC1)[*:2]; Thp(SO2) = NC1(C(=O)O)CCS(=O)(=O)CC1; AEF = NCCOc1ccc(C[C@H](N)C(=O)O)cc1; Adipoyl = O=C(CCCCC(=O)[*:2])[*:1]; 3Pal = N[C@@H](Cc1cccnc1)C(=O)O; X5 = COCCOCCOCCOCCOCCOCC(=O)*; Pen = CC(C)(S)[C@H](N)C(=O)O; Thp = NC1(C(=O)O)CCOCC1; AEEA = NCCOCCOCC(=O)O; Sar = CNCC(=O)O

molecular target: T1, IL-23α/IL-12β and IL-23R (Homo sapiens, UniProt Q5VWK5); assay: IL-23α/IL-12β and IL-23R binding assay (TR-FRET/HTRF); conditions: inhibition of the binding of IL-23α/IL-12β to IL-23R, TR-FRET; both proteins 0.3 nM
T1 construct: purchased ACRO ILR-H82F3 (IL-23R); ILB-H52W5 (IL-23α/IL-12β)
T1 sequence (Q5VWK5 24-353 limits assumed): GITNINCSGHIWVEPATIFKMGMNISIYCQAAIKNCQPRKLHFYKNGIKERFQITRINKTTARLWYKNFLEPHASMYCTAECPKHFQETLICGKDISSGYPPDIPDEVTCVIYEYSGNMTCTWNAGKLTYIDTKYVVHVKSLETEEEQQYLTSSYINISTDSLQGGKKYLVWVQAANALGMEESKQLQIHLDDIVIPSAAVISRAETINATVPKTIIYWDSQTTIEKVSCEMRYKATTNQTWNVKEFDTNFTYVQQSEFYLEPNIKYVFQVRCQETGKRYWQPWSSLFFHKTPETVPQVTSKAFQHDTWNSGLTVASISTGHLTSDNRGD
Protocol: 1. IL-23α/IL-12β and IL-23R binding assay
Compounds were tested for their inhibition on the binding of IL-23α/IL-12β to IL-23R by the TR-FRET method. Solutions of proteins IL-23α/IL-12β (ACRO, Cat# ILB-H52W5) and IL-23R (ACRO, Cat# ILR-H82F3) were prepared in reaction buffer PPI (PerkinElmer, Cat# 61DB10RDF). The final concentrations of IL-23α/IL-12β and IL-23R in the reaction mixture were both 0.3 nM. Positive reference Guselkumab was 3-fold diluted from an initial concentration of 30 nM, with 10 doses. 0.1 µL of the positive reference diluted in the reaction buffer was delivered to a 384-well plate (Grenier, Cat# 784075) by the acoustic liquid delivery technique (Echo 655), and the plate was centrifuged at 1000 rpm for 1 minute. 2.5 µL of IL-23α/IL-12β solution was transferred into the 384-well reaction plate, and the plate was centrifuged at 1000 rpm for 1 minute, and incubated at 25°C for 60 minutes. 2.5 µL of IL-23R solution was transferred into the 384-well reaction plate, and the plate was centrifuged at 1000 rpm for 1 minute. 5 µL of Streptavidin-Tb cryptate and Anti 6HIS-d2 detection mixture was transferred into the 384-well reaction plate, and the plate was centrifuged at 1000 rpm for 1 minute, and incubated at 25°C for 60 minutes. Finally, the HTRF signal (Ratio 665/620 nm) was read with a BMG high-throughput drug screening multifunctional microplate reader. IC50 values were obtained by nonlinear regression curve fitting using GraphPad Prism software.

Structure (SMILES) | IC50
CC(=O)N[C@@H](CCC(=O)NCCOCCOCC(=O)NCCOCCOCC(=O)N[C@@H]1C(=O)N[C@@H](Cc2c[nH]cn2)C(=O)N[C@@H]([C@@H](C)O)C(=O)N[C@@H](Cc2c[nH]c3c(C4CC4)cccc23)C(=O)N[C@@H](CCC(N)=O)C(=O)N[C@H](C(=O)N[C@@H](Cc2ccc(OCCN)c3c2CCC3)C(=O)N[C@@H](Cc2ccc3ccccc3c2)C(=O)NC2(C(=O)N[C@@H](CCC(=O)O)C(=O)N[C@@H](CC(N)=O)C(=O)N[C@@H](Cc3cccnc3)C(=O)N(C)CC(N)=O)CCS(=O)(=O)CC2)C(C)(C)SSC1(C)C)C(=O)O [Compound 36] (Ac-[γGlu][AEEA][AEEA][Pen]HT[Trp(7-cPr)]Q[Pen][Phe(4-OC2H4NH2,2,3-(CH2)3)][2Nal][Thp(SO2)]EN[3Pal][Sar]-NH2; disulfide 4-9) | 0.042 nM
COCCOCCOCCOCCOCCOCCOCCOCCOCCOCCOCCOCCOCC(=O)N[C@@H]1C(=O)N[C@@H](Cc2c[nH]cn2)C(=O)N[C@@H]([C@@H](C)O)C(=O)N[C@@H](Cc2c[nH]c3c(C4CC4)cccc23)C(=O)N[C@@H](CCC(N)=O)C(=O)N[C@H](C(=O)N[C@@H](Cc2ccc(OCCN)c3c2CCC3)C(=O)N[C@@H](Cc2ccc3ccccc3c2)C(=O)NC2(C(=O)N[C@@H](CCC(=O)O)C(=O)N[C@@H](CC(N)=O)C(=O)N[C@@H](Cc3cccnc3)C(=O)N(C)CC(N)=O)CCS(=O)(=O)CC2)C(C)(C)SSC1(C)C [Compound 46] (X4-[Pen]HT[Trp(7-cPr)]Q[Pen][Phe(4-OC2H4NH2,2,3-(CH2)3)][2Nal][Thp(SO2)]EN[3Pal][Sar]-NH2; disulfide 1-6) | 0.095 nM
CC(=O)N[C@@H](CCC(=O)NCCOCCOCC(=O)NCCOCCOCC(=O)NCCCC[C@@H]1NC(=O)[C@H](Cc2c[nH]c3c(C4CC4)cccc23)NC(=O)[C@H]([C@@H](C)O)NC(=O)[C@H](Cc2c[nH]cn2)NC(=O)[C@@H](NC(C)=O)C(C)(C)SSC(C)(C)[C@@H](C(=O)N[C@@H](Cc2ccc(OCCN)c3c2CCC3)C(=O)N[C@@H](Cc2ccc3ccccc3c2)C(=O)NC2(C(=O)N[C@@H](CCC(=O)O)C(=O)N[C@@H](CC(N)=O)C(=O)N[C@@H](Cc3cccnc3)C(=O)N(C)CC(N)=O)CCS(=O)(=O)CC2)NC1=O)C(=O)O [Compound 47] (Ac-[Pen]HT[Trp(7-cPr)]K([AEEA-AEEA-γGlu-Ac])[Pen][Phe(4-OC2H4NH2,2,3-(CH2)3)][2Nal][Thp(SO2)]EN[3Pal][Sar]-NH2; disulfide 1-6) | 0.093 nM
C[C@@H](O)[C@@H]1NC(=O)[C@H](Cc2c[nH]cn2)NC(=O)[C@@H](NC(=O)COCCOCCNC(=O)COCCOCCNC(=O)CC[C@H](NC(=O)CCCCC(=O)O)C(=O)O)C(C)(C)SSC(C)(C)[C@@H](C(=O)N[C@@H](Cc2ccc(OCCN)c3c2CCC3)C(=O)N[C@@H](Cc2ccc3ccccc3c2)C(=O)NC2(C(=O)N[C@@H](CCC(=O)O)C(=O)N[C@@H](CC(N)=O)C(=O)N[C@@H](Cc3cccnc3)C(=O)N(C)CC(N)=O)CCS(=O)(=O)CC2)NC(=O)[C@H](CCC(N)=O)NC(=O)[C@H](Cc2c[nH]c3c(C4CC4)cccc23)NC1=O [Compound 48] ({Adipoyl-γGlu-AEEA-AEEA}-[Pen]HT[Trp(7-cPr)]Q[Pen][Phe(4-OC2H4NH2,2,3-(CH2)3)][2Nal][Thp(SO2)]EN[3Pal][Sar]-NH2; disulfide 1-6) | 0.058 nM
CC(=O)N[C@H]1CSCc2cc3cc(c2)CSC[C@@H](C(=O)N[C@@H](CC(N)=O)C(=O)N[C@@H](Cc2cccnc2)C(=O)N(C)CC(N)=O)NC(=O)C2(CCS(=O)(=O)CC2)NC(=O)[C@H](Cc2ccc4ccccc4c2)NC(=O)[C@H](Cc2ccc(OCCN)c4c2CCC4)NC(=O)[C@H](CSC3)NC(=O)[C@H](CCC(N)=O)NC(=O)[C@H](Cc2c[nH]c3c(C)cccc23)NC(=O)[C@H]([C@@H](C)O)NC(=O)[C@H](Cc2c[nH]cn2)NC1=O [Compound 19] (Ac-CHT[Trp(7-Me)]QC[Phe(4-OC2H4NH2,2,3-(CH2)3)][2Nal][Thp(SO2)]CN[3Pal][Sar]-NH2; linker 1-6-10 via TBMB) | 0.248 nM
COCCOCCOCCOCCOCCOCC(=O)N[C@@H]1C(=O)N[C@@H](Cc2c[nH]cn2)C(=O)N[C@@H]([C@@H](C)O)C(=O)N[C@@H](Cc2c[nH]c3c(C4CC4)cccc23)C(=O)N[C@@H](CCC(N)=O)C(=O)N[C@H](C(=O)N[C@@H](Cc2ccc(OCCN)c3c2CCC3)C(=O)N[C@@H](Cc2ccc3ccccc3c2)C(=O)NC2(C(=O)N[C@@H](CCC(=O)O)C(=O)N[C@@H](CC(N)=O)C(=O)N[C@@H](Cc3cccnc3)C(=O)N(C)CC(N)=O)CCS(=O)(=O)CC2)C(C)(C)SSC1(C)C [Compound 35] (X5-[Pen]HT[Trp(7-cPr)]Q[Pen][Phe(4-OC2H4NH2,2,3-(CH2)3)][2Nal][Thp(SO2)]EN[3Pal][Sar]-NH2; disulfide 1-6) | 0.063 nM
CC(=O)N[C@@H]1C(=O)N[C@@H](Cc2c[nH]cn2)C(=O)N[C@@H]([C@@H](C)O)C(=O)N[C@@H](Cc2c[nH]c3c(C4CC4)cccc23)C(=O)N[C@@H](CCCCNC(=O)COCCOCCNC(=O)COCCOCCNC(=O)CC[C@H](NC(=O)CCCCCCCCCCCCCCCCC(=O)O)C(=O)O)C(=O)N[C@H](C(=O)N[C@@H](Cc2ccc(OCCN)c3c2CCC3)C(=O)N[C@@H](Cc2ccc3ccccc3c2)C(=O)NC2(C(=O)N[C@@H](CCC(=O)O)C(=O)N[C@@H](CC(N)=O)C(=O)N[C@@H](Cc3cccnc3)C(=O)N(C)CC(N)=O)CCS(=O)(=O)CC2)C(C)(C)SSC1(C)C [Compound 21] (Ac-[Pen]HT[Trp(7-cPr)]K([AEEA-AEEA-γGlu-C18 diacid])[Pen][Phe(4-OC2H4NH2,2,3-(CH2)3)][2Nal][Thp(SO2)]EN[3Pal][Sar]-NH2; disulfide 1-6) | 0.248 nM
CC(=O)NC1C(=O)N[C@@H](Cc2c[nH]cn2)C(=O)N[C@@H]([C@@H](C)O)C(=O)N[C@@H](Cc2c[nH]c3c(C4CC4)cccc23)C(=O)N[C@@H](CCC(N)=O)C(=O)NC(C(=O)N[C@@H](Cc2ccc(OCCN)c3c2CCC3)C(=O)N[C@@H](Cc2ccc3ccccc3c2)C(=O)NC2(C(=O)N[C@@H](CCC(=O)O)C(=O)N[C@@H](CC(N)=O)C(=O)N[C@@H](Cc3cccnc3)C(=O)N(C)CC(N)=O)CCS(=O)(=O)CC2)C2(CC2)SSC12CC2 (stereo partly drawn) [Compound 54] (Ac-[X1]HT[Trp(7-cPr)]Q[X1][Phe(4-OC2H4NH2,2,3-(CH2)3)][2Nal][Thp(SO2)]EN[3Pal][Sar]-NH2; disulfide 1-6) | 0.091 nM
CC(=O)NCCCC[C@@H]1NC(=O)[C@H](Cc2c[nH]c3c(C)cccc23)NC(=O)[C@H]([C@@H](C)O)NC(=O)[C@H](CC(N)=O)NC(=O)C(NC(C)=O)C2(CC2)SSC(C)(C)[C@@H](C(=O)N[C@@H](Cc2ccc(OCCN)cc2)C(=O)N[C@@H](Cc2ccc3ccccc3c2)C(=O)NC2(C(=O)N[C@@H](CCC(=O)O)C(=O)N[C@@H](CC(N)=O)C(=O)N[C@@H](Cc3cccnc3)C(=O)N(C)CC(N)=O)CCOCC2)NC1=O (stereo partly drawn) [Compound 37] (Ac-[X1]NT[Trp(7-Me)]K(Ac)[Pen][AEF][2Nal][Thp]EN[3Pal][Sar]-NH2; disulfide 1-6 (inferred)) | 0.05 nM
